In ChEMBL document CHEMBL4811259, “Novel 1-(prop-2-yn-1-ylamino)-2,3-dihydro-1H-indene-4-thiol derivatives as potent selective human monoamine oxidase B inhibitors: Design, SAR development, and biological evaluation” (Bioorg Med Chem Lett, 2021) one finds IC50, Ratio IC50 and Activity data, which are given here for 32 molecules.

Molecules are shown by their SMILES. Calls of active or inactive are those of the source. The calls are words filed in the database; no cut-off is given here.

The target in data set [1] is T1, Amine oxidase [flavin-containing] B (Homo sapiens, UniProt P27338).
T1 sequence (P27338 whole entry): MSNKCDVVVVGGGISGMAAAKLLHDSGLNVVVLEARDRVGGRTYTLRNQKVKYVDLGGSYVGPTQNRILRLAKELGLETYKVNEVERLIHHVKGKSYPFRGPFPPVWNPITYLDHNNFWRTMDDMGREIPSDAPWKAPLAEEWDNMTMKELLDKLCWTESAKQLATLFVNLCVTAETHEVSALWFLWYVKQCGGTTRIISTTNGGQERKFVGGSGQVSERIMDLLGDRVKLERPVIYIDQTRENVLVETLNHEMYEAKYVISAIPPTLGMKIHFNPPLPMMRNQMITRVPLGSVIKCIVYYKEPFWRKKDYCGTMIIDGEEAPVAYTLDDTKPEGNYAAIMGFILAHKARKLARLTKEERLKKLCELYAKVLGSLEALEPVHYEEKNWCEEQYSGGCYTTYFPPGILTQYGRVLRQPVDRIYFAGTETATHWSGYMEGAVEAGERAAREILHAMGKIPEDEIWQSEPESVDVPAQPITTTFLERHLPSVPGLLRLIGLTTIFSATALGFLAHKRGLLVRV
Put plainly: Inhibition of human MAO-B.

Data set [2] is described as follows: Selectivity index, ratio of IC50 for human MAO-A to IC50 for human MAO-B.
For data set [3], the target named is T1, Amine oxidase [flavin-containing] B. Put plainly: Inhibition of human MAO-A. The data set is classed as ADME.
For data set [4], the system named is SH-SY5Y. Description: Cytotoxicity against human SH-SY5Y cells at 5 to 50 uM after 24 hrs by MTT assay. It is filed as cell-based. The conditions noted are these: dose 5-50 µM.
For data set [5], the system named is BV-2. Description: Cytotoxicity against C57/BL6 mouse BV-2 cells at 5 to 50 uM after 24 hrs by MTT assay. It is filed as cell-based. The conditions noted are these: bv-2, 24 h, dose 5-50 µM.
For data set [6], the system named is BV-2. Description: Cytotoxicity against C57/BL6 mouse BV-2 cells assessed as induction of cell death at 50 uM after 24 hrs by MTT assay relative to control. The data set is classed as cell-based. The conditions noted are these: bv-2, 24 h.
The test system of data set [7] is SH-SY5Y. Put plainly: Cytotoxicity against human SH-SY5Y cells assessed as induction of cell death at 50 uM after 24 hrs by MTT assay relative to control. The data set is classed as cell-based.
Data set [8] relates to BV-2. Put plainly: Neuroprotective activity against LPS-induced oxidative stress in C57/BL6 mouse BV-2 cells assessed as decrease in ROS level at < 20 uM after 24 hrs by DCFH-DA dye based fluorescence assay. The data set is classed as functional, cell-based. The conditions noted are these: dose microM <20, time 24.0 hrs.
Data set [9] concerns SH-SY5Y. Put plainly: Neuroprotective activity against LPS-induced oxidative stress in human SH-SY5Y cells assessed as decrease in ROS level at < 20 uM after 24 hrs by DCFH-DA dye based fluorescence assay. It is filed as functional, cell-based. The conditions noted are these: dose microM <20, time 24.0 hrs.
The subject of data set [10] is Mus musculus. Put plainly: Neuroprotective activity against MPTP-induced C57BL/6J mouse model of Parkinson's disease assessed as increase in average speed at 0.2 mg/kg, ip pretreated for 7 consecutive days followed by MPTP challenge and further treated with compound until day 14 by open field test. The settings on record: time 14.0 day. It is filed as functional, organism-based.

For data set [11], the system named is Mus musculus. Put plainly: Neuroprotective activity against MPTP-induced C57BL/6J mouse model of Parkinson's disease assessed as increase in total distance at 0.2 mg/kg, ip pretreated for 7 consecutive days followed by MPTP challenge and further treated with compound until day 14 by open field test. The data set is classed as functional, organism-based. The settings on record: time 14.0 day.

In data set [12] the test system is Mus musculus. Put plainly: Neuroprotective activity against MPTP-induced C57BL/6J mouse model of Parkinson's disease assessed as decrease in immobility time at 0.2 mg/kg, ip pretreated for 7 consecutive days followed by MPTP challenge and further treated with compound until day 14 by open field test. The data set is classed as functional, organism-based. The settings on record: time 14.0 day.

In the case of `C#CCNC1CCc2c(SCCc3ccc(Cl)cc3)cccc21` (stereo unspecified), the IC50 in [1] is 10.8 µM. In data set [2], the Ratio IC50 amounted to 0.085.
On the same counts, the results for `C#CCNC1CCc2c(SCc3ccc(F)c(F)c3)cccc21` (stereo unspecified) are 2.65 µM and 0.99.
Turning to `C#CCNC1CCc2c(SCc3ccccc3)cccc21` (stereo unspecified), the figures for the IC50 in data set [1] and in data set [3] were 6.4 µM and “Not Active”, respectively. Besides, in [2], the Ratio IC50 is above 15.6.
Molecule `C#CCNC1CCc2c(NCc3cccc(C(F)(F)F)c3)cccc21` (stereo unspecified) registered an IC50 in data set [1] of 5.11 µM. In addition, the Ratio IC50 in data set [2] is 2.21.
Taken in the same sequence, the figures for `C#CCNC1CCc2c(SCc3cccc(OC)c3)cccc21` (stereo unspecified) were 3.19 µM and 0.48.
In [1], `C#CCNC1CCc2c(SCCc3ccc(Br)cc3)cccc21` (stereo unspecified) came in with an IC50 of 85.3 µM. For the same molecule, the Ratio IC50 in [2] amounted to 0.015.
Turning to `C#CCNC1CCc2c(SCc3ccc(Cl)cc3Cl)cccc21` (stereo unspecified), the half-inhibitory concentration (IC50) in [1] came out at 3.76 µM. Besides, the Ratio IC50 in data set [2] came out at 5.93.
For `C#CCNC1CCc2c(SCc3ccc(Br)cc3)cccc21` (stereo unspecified), in data set [1], the IC50 was found to be 1.31 µM. In addition, the Ratio IC50 in data set [2] was 0.37.
On the same counts, the results for `C#CCNC1CCc2c(SCCc3ccc(Cl)c(Cl)c3)cccc21` (stereo unspecified) are 3.85 µM and 0.73.
On the same counts, the results for `C#CCNC1CCc2c(SCc3cccc(Cl)c3)cccc21` (stereo unspecified) are 23.3 µM and 0.047.
Taken in the same sequence, the figures for `C#CCNC1CCc2c(SCCc3cccc(C(F)(F)F)c3)cccc21` (stereo unspecified) were 3.72 µM and 0.076.
`C#CCNC1CCc2c(SCCc3cccc(Br)c3)cccc21` (stereo unspecified): the midpoint of inhibition in [1], the IC50, lay at 30.5 µM. Besides, the Ratio IC50 in data set [2] amounted to 0.02.
Taken in the same sequence, the figures for `C#CCNC1CCc2c(SCc3ccc(Cl)c(Cl)c3)cccc21` (stereo unspecified) were 2.84 µM and 0.026.
In data set [1], `C#CCNC1CCc2c(SCCc3ccc(C(F)(F)F)cc3)cccc21` (stereo unspecified) registered an IC50 of 16.1 µM. In addition, the Ratio IC50 in data set [2] is 0.54.
For the molecule `C#CCNC1CCc2c(SCCc3cccc(Cl)c3)cccc21` (stereo unspecified), in data set [1], the IC50 turned out to be 82.4 µM.
For the molecule `C#CCNC1CCc2c(SCc3ccc(OC)cc3)cccc21` (stereo unspecified), the IC50 in [1] was found to be 1.9 µM. The Ratio IC50 in data set [2] stood at 2.09.
Regarding `C#CCNC1CCc2c(SCCc3cccc(C)c3)cccc21` (stereo unspecified), the Activity entry with SH-SY5Y [4] was “Non-Toxic”; with BV-2 [5] it was “Non-Toxic”; in the data set on BV-2 [6] it was 30%; in the data set with SH-SY5Y [7], 30%. This molecule also came in with an IC50 in data set [1] of 0.00035 µM. Besides, the Ratio IC50 in data set [2] came out at 14200. Besides, the result with BV-2 [8], in the data set with SH-SY5Y [9], in the data set on Mus musculus [10], in the data set on Mus musculus [11] and in the data set on Mus musculus [12] was Active.
In the case of `C#CCNC1CCc2c(SCc3ccc4ccccc4c3)cccc21` (stereo unspecified), in data set [1], half-maximal inhibition (IC50) required 4.95 µM. For the same molecule, the Ratio IC50 in data set [2] was found to be 14.
For `C#CCNC1CCc2c(SCc3ccc(C(F)(F)F)cc3)cccc21` (stereo unspecified), the 50% inhibitory concentration (IC50) in data set [1] was 9.68 µM. The Ratio IC50 in data set [2] was found to be 0.096.
For `C#CCNC1CCc2c(OCc3cccc(C(F)(F)F)c3)cccc21` (stereo unspecified), in data set [1], it took 6.41 µM to reach half-maximal inhibition (IC50). Further, the Ratio IC50 in [2] turned out to be 0.84.
Taken in the same sequence, the figures for `C#CCNC1CCc2c(SCc3ccc(F)cc3F)cccc21` (stereo unspecified) were 2.43 µM and 0.61.
Regarding `C#CCNC1CCc2c(SCc3cccc(C)c3)cccc21` (stereo unspecified), the IC50 in data set [1] is above 100 µM.
`C#CCNC1CCc2c(SCCc3cccc(F)c3)cccc21` (stereo unspecified) gave an IC50 in [1] of 4.3 µM. The Ratio IC50 in data set [2] is 1.82.
On the same counts, the results for `C#CCNC1CCc2c(SCCc3cccc(OC)c3)cccc21` (stereo unspecified) are 28.7 µM and 0.13.
Consider `C#CCNC1CCc2c(SCCc3ccc(F)c(F)c3)cccc21` (stereo unspecified), for which half-maximal inhibition in data set [1] (IC50) was put at 3.24 µM.
For `C#CCNC1CCc2c(SCc3cccc(F)c3)cccc21` (stereo unspecified), in data set [1], it took 1.48 µM to reach half-maximal inhibition (IC50). In addition, in [2], the Ratio IC50 is 7.79.
For the molecule `C#CCNC1CCc2c(SCc3cccc(Br)c3)cccc21` (stereo unspecified), in data set [1], the IC50 is above 100 µM.
Regarding `C#CCNC1CCc2c(SCCc3ccc(C)cc3)cccc21` (stereo unspecified), the midpoint of inhibition in [1], the IC50, lay at 25.8 µM. Further, the Ratio IC50 in data set [2] turned out to be 0.18.
On the same counts, the results for `C#CCNC1CCc2c(SCc3ccc(C)cc3)cccc21` (stereo unspecified) are 1.56 µM and 0.2.
On to `C#CCNC1CCc2c(SCc3cccc(C(F)(F)F)c3)cccc21` (stereo unspecified), for which the Activity entry in the data set with SH-SY5Y [4] is given as “Non-Toxic”; in the data set with BV-2 [5], “Non-Toxic”; in the data set on BV-2 [6], 30%; with SH-SY5Y [7] it was 30%. In data set [1], this molecule showed a 50% inhibitory concentration (IC50) of 0.0047 µM. The Ratio IC50 in data set [2] came to 1640. The result in the data set on BV-2 [8], in the data set with SH-SY5Y [9], in the data set on Mus musculus [10], in the data set on Mus musculus [11] and in the data set on Mus musculus [12] was Active.
With `C#CCN[C@@H]1CCc2ccccc21` [RASAGILINE], the Activity entry in the data set with SH-SY5Y [4] was “Non-Toxic”; with BV-2 [5] it was “Non-Toxic”; in the data set on BV-2 [6] it was 30%; in the data set with SH-SY5Y [7], 30%. Also, the outcome in the data set on BV-2 [8], in the data set with SH-SY5Y [9], with Mus musculus [10], in the data set with Mus musculus [11] and in the data set with Mus musculus [12] was Active.
The molecule `C#CCNC1CCc2c(SCCc3ccc(OC)cc3)cccc21` (stereo unspecified) came in with an IC50 in [1] of 62 µM. For the same molecule, in [2], the Ratio IC50 amounted to 13.5.
